# Laboratory results published in patent US8846698B2, “Pyrrolo[2,3-d]pyrimidine tropomysin-related kinase inhibitors” (Pfizer Limited, priority 2011, dated 2014).
# pIC50: −log10 of the molar value. Like-named read-outs stand apart in the source and are kept apart here.
# Assays:
# TRKB [1] = biological target: T1, TRKB (Homo sapiens (Human), UniProt Q16620); test: cell-based; settings: TrkB cell potency, TRKB PathHunter cell line
# TRKA [2] = biological target: T2, TRKA (Homo sapiens (Human), UniProt P04629); test: Cell based DiscoveRx PathHunter antagonist assay, TRKA cell line; settings: read-out: TrkA cell potency
# Target sequence in this assay (P04629 33-796): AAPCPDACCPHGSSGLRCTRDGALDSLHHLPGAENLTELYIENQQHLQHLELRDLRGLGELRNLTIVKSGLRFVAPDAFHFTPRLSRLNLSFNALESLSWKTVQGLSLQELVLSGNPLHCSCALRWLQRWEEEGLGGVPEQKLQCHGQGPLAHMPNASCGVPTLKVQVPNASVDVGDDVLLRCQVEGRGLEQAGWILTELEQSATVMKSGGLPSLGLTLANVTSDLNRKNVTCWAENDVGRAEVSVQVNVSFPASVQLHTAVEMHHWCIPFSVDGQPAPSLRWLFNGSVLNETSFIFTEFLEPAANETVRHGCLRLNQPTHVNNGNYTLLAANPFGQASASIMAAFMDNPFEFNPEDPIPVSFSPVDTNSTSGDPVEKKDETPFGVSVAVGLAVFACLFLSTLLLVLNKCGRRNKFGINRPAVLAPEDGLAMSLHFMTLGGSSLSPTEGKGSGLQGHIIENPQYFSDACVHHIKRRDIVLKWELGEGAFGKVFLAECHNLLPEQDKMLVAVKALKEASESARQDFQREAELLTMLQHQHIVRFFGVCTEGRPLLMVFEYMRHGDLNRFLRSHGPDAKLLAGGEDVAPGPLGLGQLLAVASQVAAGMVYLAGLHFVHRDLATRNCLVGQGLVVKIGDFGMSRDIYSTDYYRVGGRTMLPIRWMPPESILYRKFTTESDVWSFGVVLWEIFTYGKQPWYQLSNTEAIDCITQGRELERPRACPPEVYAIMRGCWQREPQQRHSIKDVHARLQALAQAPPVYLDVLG
# BCRP (ABCG2) = BCRP (ABCG2) (Homo sapiens (Human), UniProt Q9UNQ0); test: MDCK-BCRP efflux assay (in vitro brain penetration); type: in vitro ADME; settings: dog; for Papp A→B: A to B, read-out: RRCK BCRP Papp AB; for Papp B→A: B to A, read-out: RRCK BCRP Papp BA
# Chain of BCRP (ABCG2) (Q9UNQ0 whole entry): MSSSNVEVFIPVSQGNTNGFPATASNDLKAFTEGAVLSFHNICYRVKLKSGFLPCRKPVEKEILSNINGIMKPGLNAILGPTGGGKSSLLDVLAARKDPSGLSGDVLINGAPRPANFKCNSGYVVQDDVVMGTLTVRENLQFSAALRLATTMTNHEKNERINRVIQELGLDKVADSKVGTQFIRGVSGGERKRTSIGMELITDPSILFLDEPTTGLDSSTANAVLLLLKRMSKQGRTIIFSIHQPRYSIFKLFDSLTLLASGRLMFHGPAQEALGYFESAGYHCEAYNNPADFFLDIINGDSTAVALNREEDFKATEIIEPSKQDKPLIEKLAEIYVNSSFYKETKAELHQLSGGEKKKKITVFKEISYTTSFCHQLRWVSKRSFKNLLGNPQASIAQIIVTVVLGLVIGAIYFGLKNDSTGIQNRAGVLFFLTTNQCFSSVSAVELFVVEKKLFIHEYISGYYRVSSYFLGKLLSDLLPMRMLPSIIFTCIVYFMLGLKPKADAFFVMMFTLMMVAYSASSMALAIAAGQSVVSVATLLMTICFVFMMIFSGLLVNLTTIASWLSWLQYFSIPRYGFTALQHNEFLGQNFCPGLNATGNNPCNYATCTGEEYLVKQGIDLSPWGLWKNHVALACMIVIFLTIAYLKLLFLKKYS
# TRKA [3] = biological target: T2, TRKA; test: Isolated TRK enzyme assay (HTRF KinEASE-TK), TRKA; type: biochemical; settings: isolated TRKA enzyme; read-out: TrkA enzyme potency
# Target sequence in this assay (P04629 441-796): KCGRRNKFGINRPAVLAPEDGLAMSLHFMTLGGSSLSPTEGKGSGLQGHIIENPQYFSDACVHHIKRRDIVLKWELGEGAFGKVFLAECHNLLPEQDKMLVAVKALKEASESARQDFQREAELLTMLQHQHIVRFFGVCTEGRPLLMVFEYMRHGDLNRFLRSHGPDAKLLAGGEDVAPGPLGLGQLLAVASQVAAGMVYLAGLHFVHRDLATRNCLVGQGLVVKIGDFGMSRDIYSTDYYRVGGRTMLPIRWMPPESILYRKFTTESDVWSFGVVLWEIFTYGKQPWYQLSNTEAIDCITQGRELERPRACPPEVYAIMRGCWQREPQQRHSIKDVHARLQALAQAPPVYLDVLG
# TRKB [4] = biological target: T1, TRKB; test: biochemical
# TRKC = TRKC (Homo sapiens (Human), UniProt Q16288); test: Cell based DiscoveRx PathHunter antagonist assay, TRKC cell line; settings: read-out: TrkC cell potency
# Chain of TRKC (Q16288 32-839): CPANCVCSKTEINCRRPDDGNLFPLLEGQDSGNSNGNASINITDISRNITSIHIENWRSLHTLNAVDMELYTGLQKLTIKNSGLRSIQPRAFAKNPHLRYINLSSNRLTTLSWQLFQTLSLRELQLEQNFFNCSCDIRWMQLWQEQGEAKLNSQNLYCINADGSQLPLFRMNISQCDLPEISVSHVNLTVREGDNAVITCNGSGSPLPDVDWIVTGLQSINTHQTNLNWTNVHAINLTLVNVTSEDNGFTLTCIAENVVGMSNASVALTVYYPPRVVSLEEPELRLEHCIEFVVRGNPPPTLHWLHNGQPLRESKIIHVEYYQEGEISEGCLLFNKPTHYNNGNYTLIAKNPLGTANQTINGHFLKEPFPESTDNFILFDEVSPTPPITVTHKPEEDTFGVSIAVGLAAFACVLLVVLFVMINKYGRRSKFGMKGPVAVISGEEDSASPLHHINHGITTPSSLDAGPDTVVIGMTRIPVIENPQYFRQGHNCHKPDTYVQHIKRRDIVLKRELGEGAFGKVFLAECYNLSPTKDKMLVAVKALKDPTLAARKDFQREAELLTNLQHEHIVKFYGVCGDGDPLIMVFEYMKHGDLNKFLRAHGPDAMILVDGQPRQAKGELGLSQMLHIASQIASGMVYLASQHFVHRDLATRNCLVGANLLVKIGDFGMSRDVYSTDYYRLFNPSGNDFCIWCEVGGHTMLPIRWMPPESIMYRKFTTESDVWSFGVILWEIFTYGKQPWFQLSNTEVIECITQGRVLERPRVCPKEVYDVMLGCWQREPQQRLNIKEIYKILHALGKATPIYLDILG
# Protocol: After the Detection Reagent addition, plates are covered and incubated at room temperature for 60 minutes. […] Test compound data are expressed as percentage inhibition defined by HPE and ZPE values for each plate. Percentage inhibition in the presence of test compound is plotted against compound concentration on a log scale to determine an IC50 from the resultant sigmoid curve. Cell Based Assays were carried out using Cell lines from DiscoveRx utilising their PathHunter technology and reagents in an antagonist assay:
# The assays are based upon DiscoveRx's proprietary Enzyme Fragment Complementation (EFC) technology. In the case of the TRK cell lines, the enzyme acceptor (EA) protein is fused to a SH2 protein and the TRK receptor of interest has been tagged with a Prolink tag.
# Upon neurotrophin binding, the TRK receptor becomes phosphorylated, and the tagged SH2 protein binds.
# This means that the IC50 is a good measure of affinity and should be unaffected by concentration neurotrophin stimulant.
# Cryopreserved PathHunter cells are used from either in-house produced batches or bulk batches bought directly from DiscoveRx. Cryopreserved cells are resuscitated, spun 1000 rpm for 4 min to remove freezing media, and resuspended in MEM+0.5% horse serum (both Invitrogen) to 5e^5 cells/ml. The cells are then plated using a Multidrop into Greiner white tissue culture treated plates at 20 ul/well and incubated for 24 h at 37° C., 5% CO2, high humidity. On the day of the assay, the cell plates are allowed to cool to room temperature for 30 min prior to the assay.
# Plates containing 1 ul of serially diluted compound, standard and HPE/ZPE are diluted 1/66 in assay buffer (PBS minus Ca^2+, minus Mg^2+ with 0.05% pluronic F127) using a Wellmate. […] The plates are left at room temperature for a further 2 hours before addition of 10 ul of the DiscoveRx PathHunter detection reagent (made up by adding 1 part Galacton Star, 5 parts Emerald II and 19 parts Cell Assay Buffer as per the manufacturer's instructions).
# After reagent addition, plates are covered and incubated at room temperature for 60 minutes. Luminescence signal is read using an Envision. Test compound data are expressed as percentage inhibition defined by HPE and ZPE values for each plate. Percentage inhibition in the presence of test compound is plotted against compound concentration on a log scale to determine an […] from the resultant sigmoid curve.
# MDR1 = MDR1 (Homo sapiens (Human), UniProt P08183); test: MDCK-MDR1 assay (in vitro brain penetration); type: in vitro ADME; settings: human; for Papp A→B: MDCK-MDR1, A to B, read-out: MDCK MDR1 Papp AB; for Papp B→A: read-out: MDCK MDR1 Papp BA
# Chain of MDR1 (P08183 whole entry): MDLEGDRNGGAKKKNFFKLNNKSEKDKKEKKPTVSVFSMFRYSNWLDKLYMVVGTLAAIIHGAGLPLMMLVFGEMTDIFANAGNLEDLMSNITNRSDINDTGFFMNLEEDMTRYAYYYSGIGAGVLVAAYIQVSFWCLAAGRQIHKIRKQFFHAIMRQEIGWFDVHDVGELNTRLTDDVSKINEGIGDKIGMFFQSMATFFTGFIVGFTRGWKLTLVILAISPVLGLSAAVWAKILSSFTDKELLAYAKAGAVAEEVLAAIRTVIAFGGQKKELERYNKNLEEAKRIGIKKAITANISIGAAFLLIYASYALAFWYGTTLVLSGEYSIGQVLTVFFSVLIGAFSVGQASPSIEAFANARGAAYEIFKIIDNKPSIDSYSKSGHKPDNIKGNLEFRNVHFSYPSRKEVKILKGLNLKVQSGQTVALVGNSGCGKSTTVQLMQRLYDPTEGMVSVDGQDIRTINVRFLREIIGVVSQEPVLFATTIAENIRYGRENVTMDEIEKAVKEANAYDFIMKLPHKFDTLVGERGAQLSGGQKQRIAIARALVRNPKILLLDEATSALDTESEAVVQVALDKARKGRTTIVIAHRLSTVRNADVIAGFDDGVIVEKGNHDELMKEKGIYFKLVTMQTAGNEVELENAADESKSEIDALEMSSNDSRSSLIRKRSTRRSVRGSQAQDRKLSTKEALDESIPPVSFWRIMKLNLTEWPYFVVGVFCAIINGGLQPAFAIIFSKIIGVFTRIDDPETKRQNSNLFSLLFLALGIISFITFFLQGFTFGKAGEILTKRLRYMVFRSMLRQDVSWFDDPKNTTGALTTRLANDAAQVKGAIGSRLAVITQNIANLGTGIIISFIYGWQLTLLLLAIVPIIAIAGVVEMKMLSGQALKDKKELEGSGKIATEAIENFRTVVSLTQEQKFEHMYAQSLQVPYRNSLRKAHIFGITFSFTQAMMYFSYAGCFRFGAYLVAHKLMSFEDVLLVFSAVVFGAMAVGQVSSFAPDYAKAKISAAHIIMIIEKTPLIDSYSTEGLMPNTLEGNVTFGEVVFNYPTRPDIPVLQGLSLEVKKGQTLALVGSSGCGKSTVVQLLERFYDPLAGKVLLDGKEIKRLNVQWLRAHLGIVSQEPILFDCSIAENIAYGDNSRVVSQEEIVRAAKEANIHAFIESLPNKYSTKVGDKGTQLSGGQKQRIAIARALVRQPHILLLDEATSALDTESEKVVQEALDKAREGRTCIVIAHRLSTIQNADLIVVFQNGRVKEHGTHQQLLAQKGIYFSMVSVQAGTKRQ
# Source text: MDCK-MDR1: MDCK-MDR1 data were collected according to the method described in “Are MDCK Cells Transfected with the Human MDR1 Gene a Good Model of the Human Intestinal Mucosa?”
# http://www.springerlink.com/content/qfhqlqbr4fnp3 khf/fulltext.pdf
# [5] = isolated TRKB enzyme, read-out: TrkB enzyme potency
# T1 sequence (Q16620 32-822 limits assumed): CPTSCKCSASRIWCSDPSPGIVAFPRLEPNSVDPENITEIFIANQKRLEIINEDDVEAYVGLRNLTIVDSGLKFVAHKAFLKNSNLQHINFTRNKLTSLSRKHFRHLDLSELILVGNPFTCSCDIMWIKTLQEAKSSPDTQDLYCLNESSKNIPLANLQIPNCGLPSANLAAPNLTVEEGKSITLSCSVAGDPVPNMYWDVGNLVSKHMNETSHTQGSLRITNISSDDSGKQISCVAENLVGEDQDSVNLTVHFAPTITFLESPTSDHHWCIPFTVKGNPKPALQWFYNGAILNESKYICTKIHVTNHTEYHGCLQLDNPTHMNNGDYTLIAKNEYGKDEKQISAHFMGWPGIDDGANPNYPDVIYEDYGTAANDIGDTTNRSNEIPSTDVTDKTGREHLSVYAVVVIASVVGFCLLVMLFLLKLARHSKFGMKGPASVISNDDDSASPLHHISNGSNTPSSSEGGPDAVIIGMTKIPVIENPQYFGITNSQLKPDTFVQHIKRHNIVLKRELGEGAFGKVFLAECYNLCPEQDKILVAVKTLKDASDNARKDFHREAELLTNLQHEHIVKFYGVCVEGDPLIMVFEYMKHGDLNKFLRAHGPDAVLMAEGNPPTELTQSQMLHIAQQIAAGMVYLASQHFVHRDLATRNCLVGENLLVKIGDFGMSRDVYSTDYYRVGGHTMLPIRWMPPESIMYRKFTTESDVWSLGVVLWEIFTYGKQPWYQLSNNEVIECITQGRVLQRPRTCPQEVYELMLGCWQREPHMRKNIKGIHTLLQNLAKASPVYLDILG
Structure (SMILES),pIC50 (TRKB [1]),pIC50 (TRKA [2]),Papp A→B (BCRP (ABCG2)),Papp B→A (BCRP (ABCG2)),pIC50 (TRKA [3]),pIC50 (TRKB [4]; TrkB enzyme potency),pIC50 (TRKC),Papp A→B (MDR1),"Papp B→A (MDR1; MDCK-MDR1, B to A)","Papp B→A (MDR1; MDCK-MDR1, MDCK-MDR1, B to A)",pIC50 (TRKB [4]; [5])
"Cc1cc(C(F)(F)F)nn1CC(=O)Nc1cncc(C(=O)c2cn(C(C)(C)CO)c3ncncc23)c1 [Example 26, N-(5-{[7-(2-hydroxy-1,1-dimethylethyl)-7H-pyrrolo[2,3-d]pyrimidin-5-yl]carbonyl}pyridin-3-yl)-2-[5-methyl-3-(trifluoromethyl)-1H-pyrazol-1-yl]acetamide]",8.23,7.85,7.5 ×10⁻⁶ cm/s,32 ×10⁻⁶ cm/s,8.46,7.52,8.07,< 1 ×10⁻⁶ cm/s,16 ×10⁻⁶ cm/s,–,–
"CC(C)(CO)n1cc(C(=O)c2cncc(NC(=O)Cc3ccc(Cl)cn3)c2)c2cnc(N)nc21 [Example 46, N-(5-{[2-Amino-7-(2-hydroxy-1,1-dimethylethyl)-7H-pyrrolo[2,3-d]pyrimidin-5-yl]carbonyl}pyridin-3-yl)-2-(5-chloropyridin-2-yl)acetamide]",–,–,7 ×10⁻⁶ cm/s,31 ×10⁻⁶ cm/s,–,–,–,< 1 ×10⁻⁶ cm/s,–,18 ×10⁻⁶ cm/s,–
"CC(C)(C)n1cc(C(=O)c2cncc(NC(=O)Cn3cc(C4CC4)nn3)c2)c2cncnc21 [Example 4, N-{5-[(7-tert-butyl-7H-pyrrolo[2,3-d]pyrimidin-5-yl)carbonyl]pyridin-3-yl}-2-(4-cyclopropyl-1H-1,2,3-triazol-1-yl)acetamide]",8.19,8.24,12 ×10⁻⁶ cm/s,39 ×10⁻⁶ cm/s,8.41,6.79,8.36,< 1 ×10⁻⁶ cm/s,13 ×10⁻⁶ cm/s,–,–
"CC(C)(CO)n1cc(C(=O)c2cncc(NC(=O)Cc3ccc(C(F)(F)F)cc3)c2)c2cnc(N)nc21 [Example 48, N-(5-{[2-amino-7-(2-hydroxy-1,1-dimethylethyl)-7H-pyrrolo[2,3-d]pyrimidin-5-yl]carbonyl}pyridin-3-yl)-2-[4-(trifluoromethyl)phenyl]acetamide]",8.44,8.54,–,–,8.77,–,8.60,< 1 ×10⁻⁶ cm/s,–,12 ×10⁻⁶ cm/s,7.40
"CC(C)(C)n1cc(C(=O)c2cncc(NC(=O)Cn3ccc(C(F)(F)F)n3)c2)c2cncnc21 [Example 5, N-{5-[(7-tert-butyl-7H-pyrrolo[2,3-d]pyrimidin-5-yl)carbonyl]pyridin-3-yl}-2-[3-(trifluoromethyl)-1H-pyrazol-1-yl]acetamide]",8.44,8.46,–,–,8.59,–,8.70,1.5 ×10⁻⁶ cm/s,–,14 ×10⁻⁶ cm/s,7.14
"CC(C)(CO)n1cc(C(=O)c2cncc(NC(=O)Cc3ccc(F)cn3)c2)c2cnc(N)nc21 [Example 51, N-(5-{[2-amino-7-(2-hydroxy-1,1-dimethylethyl)-7H-pyrrolo[2,3-d]pyrimidin-5-yl]carbonyl}pyridin-3-yl)-2-(5-fluoropyridin-2-yl)acetamide]",8.12,7.46,–,–,8.11,–,8.00,< 1 ×10⁻⁶ cm/s,–,11 ×10⁻⁶ cm/s,6.70
"C[C@@H](CO)n1cc(C(=O)c2cncc(NC(=O)Cc3ccc(C(F)(F)F)cc3)c2)c2cncnc21 [Example 9, N-[5-({7-[(1S)-2-Hydroxy-1-methylethyl]-7H-pyrrolo[2,3-d]pyrimidin-5-yl}carbonyl)pyridin-3-yl]-2-[4-(trifluoromethyl)phenyl]acetamide]",8.18,7.89,9 ×10⁻⁶ cm/s,43 ×10⁻⁶ cm/s,8.43,–,8.23,< 1 ×10⁻⁶ cm/s,–,20 ×10⁻⁶ cm/s,7.03
